Patent US20200291018A1, “TAM KINASE INHIBITORS” (SYROS PHARMACEUTICALS, INC., priority 2017, published 2020)
Counter-ions that a name gives are not always drawn.

Experiments:
MERTK = target: T1, MERTK (Homo sapiens, UniProt Q12866); assay: TR-FRET kinase activity assay, MERTK; format: biochemical; conditions: for IC50: TR-FRET activity assay, ATP at Km, 60 minutes, read-out: Mer IC50; for Mer/Flt3 ratio (FLT3 IC50/Mer IC50): ratio calculated as FLT3 IC50/Mer IC50
T1 sequence (Q12866 21-999): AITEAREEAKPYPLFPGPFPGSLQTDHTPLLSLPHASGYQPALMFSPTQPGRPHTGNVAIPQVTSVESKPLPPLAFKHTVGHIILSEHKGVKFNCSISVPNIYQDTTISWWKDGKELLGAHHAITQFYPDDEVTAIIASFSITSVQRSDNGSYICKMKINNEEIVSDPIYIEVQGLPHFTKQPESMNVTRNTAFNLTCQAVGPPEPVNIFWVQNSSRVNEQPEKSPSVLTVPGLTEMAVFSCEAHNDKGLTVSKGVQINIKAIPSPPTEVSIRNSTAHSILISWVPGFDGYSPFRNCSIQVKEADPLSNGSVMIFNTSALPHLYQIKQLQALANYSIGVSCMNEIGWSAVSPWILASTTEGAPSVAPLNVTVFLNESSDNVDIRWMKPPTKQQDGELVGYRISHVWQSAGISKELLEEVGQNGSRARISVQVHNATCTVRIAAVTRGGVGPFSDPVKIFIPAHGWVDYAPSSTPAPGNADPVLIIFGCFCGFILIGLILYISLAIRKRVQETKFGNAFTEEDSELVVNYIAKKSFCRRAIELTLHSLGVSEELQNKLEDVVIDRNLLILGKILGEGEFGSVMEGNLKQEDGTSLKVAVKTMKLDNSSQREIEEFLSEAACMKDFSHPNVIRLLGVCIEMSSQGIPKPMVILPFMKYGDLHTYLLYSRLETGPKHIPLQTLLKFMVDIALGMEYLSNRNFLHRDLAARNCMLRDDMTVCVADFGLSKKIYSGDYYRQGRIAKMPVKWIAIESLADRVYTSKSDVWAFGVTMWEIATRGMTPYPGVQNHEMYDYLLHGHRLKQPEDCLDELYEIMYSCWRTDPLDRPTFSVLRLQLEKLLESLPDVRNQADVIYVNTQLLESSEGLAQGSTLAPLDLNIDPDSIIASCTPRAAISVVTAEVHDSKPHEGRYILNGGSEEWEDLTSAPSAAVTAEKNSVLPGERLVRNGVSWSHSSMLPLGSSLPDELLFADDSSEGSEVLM
Outline: (§1)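 Buffer 50 mM HEPES pH 7.5/10 mM MgCl2/1 mM EGTA/0.01% Brij 35/1 mM DTT, RT. Km ATP per kinase, labeled peptide, 60 min; 12.5 mM EDTA stop; Eu-Ab 30 min dark; TR-FRET → IC50.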

FLT3 = target: T2, FLT3 (Homo sapiens, UniProt P36888); assay: TR-FRET kinase activity assay, FLT3; format: biochemical; conditions: ATP at Km, 60 minutes
T2 sequence (P36888 27-993): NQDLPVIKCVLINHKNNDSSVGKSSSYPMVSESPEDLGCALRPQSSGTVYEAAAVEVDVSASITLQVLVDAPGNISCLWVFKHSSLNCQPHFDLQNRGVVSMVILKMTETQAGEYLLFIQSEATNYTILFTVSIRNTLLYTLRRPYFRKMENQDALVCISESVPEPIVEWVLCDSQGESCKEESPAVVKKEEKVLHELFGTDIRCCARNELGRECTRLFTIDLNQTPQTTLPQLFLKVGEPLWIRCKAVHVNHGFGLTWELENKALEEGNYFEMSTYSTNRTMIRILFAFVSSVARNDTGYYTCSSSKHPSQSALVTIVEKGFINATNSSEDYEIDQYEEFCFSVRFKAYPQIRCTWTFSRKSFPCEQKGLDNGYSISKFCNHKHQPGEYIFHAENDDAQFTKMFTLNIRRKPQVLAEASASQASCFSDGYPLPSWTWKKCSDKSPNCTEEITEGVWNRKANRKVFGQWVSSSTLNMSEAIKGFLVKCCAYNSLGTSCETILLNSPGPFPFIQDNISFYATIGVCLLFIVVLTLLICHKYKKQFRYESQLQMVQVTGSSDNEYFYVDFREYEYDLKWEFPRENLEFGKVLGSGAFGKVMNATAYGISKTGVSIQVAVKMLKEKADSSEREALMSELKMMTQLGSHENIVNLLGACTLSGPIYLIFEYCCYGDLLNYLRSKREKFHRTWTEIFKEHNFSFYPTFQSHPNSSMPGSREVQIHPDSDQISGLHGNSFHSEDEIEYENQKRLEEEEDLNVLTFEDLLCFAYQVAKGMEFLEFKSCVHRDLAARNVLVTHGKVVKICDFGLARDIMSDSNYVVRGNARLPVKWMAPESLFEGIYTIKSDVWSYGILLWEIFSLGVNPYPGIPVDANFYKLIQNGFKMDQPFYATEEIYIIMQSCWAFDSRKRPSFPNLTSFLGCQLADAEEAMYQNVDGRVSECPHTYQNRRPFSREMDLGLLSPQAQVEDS
Outline: as §1

Compound: CC[C@H](C)NC1=NC2C([C@H]3CC[C@H](O)CC3)=CN(C(C)C)C(=O)C2C=N1 (stereo partly drawn) [Compound 231]
- IC50 (MERTK): ≤ 0.1 µM
- Mer/Flt3 ratio (FLT3 IC50/Mer IC50) (MERTK): +++ (a ratio of >100)
- IC50 (FLT3): 1 to 10 µM

Compound: CC[C@H](C)Nc1ncc2c(=O)n(CC34CCC(N(C)C)(CC3)CC4)cc([C@H]3CC[C@H](O)CC3)c2n1 [Compound 264]
- IC50 (MERTK): ≤ 0.1 µM
- Mer/Flt3 ratio (FLT3 IC50/Mer IC50) (MERTK): +++ (a ratio of >100)
- IC50 (FLT3): 1 to 10 µM

Compound: C[C@@H](Nc1ncc2c(OC3CCNCC3)ncc([C@H]3CC[C@H](O)CC3)c2n1)c1ccccc1 [Compound 218]
- IC50 (MERTK): 0.1 to 1 µM
- Mer/Flt3 ratio (FLT3 IC50/Mer IC50) (MERTK): + (a ratio of >2.0 and <10)
- IC50 (FLT3): 1 to 10 µM

Compound: CCC(CC)Nc1ncc2c(OC3CCNCC3)ncc([C@H]3CC[C@H](O)CC3)c2n1 [Compound 228]
- IC50 (MERTK): ≤ 0.1 µM
- Mer/Flt3 ratio (FLT3 IC50/Mer IC50) (MERTK): ++ (a ratio of between 10 and 100)
- IC50 (FLT3): 1 to 10 µM

Compound: CCCCC[C@H](C)Nc1ncc2c(=O)n(C3CCOCC3)cc([C@H]3CC[C@H](O)CC3)c2n1 [Compound 108]
- IC50 (MERTK): ≤ 0.1 µM
- Mer/Flt3 ratio (FLT3 IC50/Mer IC50) (MERTK): +++ (a ratio of >100)
- IC50 (FLT3): 1 to 10 µM

Compound: CC[C@H](C)Nc1ncc2c(N3CC[C@@H](N(C)C)C3)ncc([C@H]3CC[C@H](O)CC3)c2n1 [Compound 222]
- IC50 (MERTK): ≤ 0.1 µM
- Mer/Flt3 ratio (FLT3 IC50/Mer IC50) (MERTK): ++ (a ratio of between 10 and 100)
- IC50 (FLT3): 1 to 10 µM

Compound: CC[C@H](C)Nc1ncc2c(OC3CC(C)(C)NC(C)(C)C3)ncc([C@H]3CC[C@H](O)CC3)c2n1 [Compound 246]
- IC50 (MERTK): ≤ 0.1 µM
- Mer/Flt3 ratio (FLT3 IC50/Mer IC50) (MERTK): +++ (a ratio of >100)
- IC50 (FLT3): 1 to 10 µM

Compound: CCCCNc1cc2c(cn1)c(=O)n(C1CCNCC1)cc2[C@H]1CC[C@H](O)CC1 [Compound 109, 6-(butylamino)-4-((1r,4r)-4-hydroxycyclohexyl)-2-(piperidin-4-yl)-2,7-naphthyridin-1(2H)-one hydrochloride]
- IC50 (MERTK): ≤ 0.1 µM
- Mer/Flt3 ratio (FLT3 IC50/Mer IC50) (MERTK): ++ (a ratio of between 10 and 100)
- IC50 (FLT3): 0.1 to 1 µM

Compound: CC(C)(C)Nc1ncc2c(OC3CCNCC3)ncc([C@H]3CC[C@H](O)CC3)c2n1 [Compound 268]
- IC50 (MERTK): ≤ 0.1 µM
- Mer/Flt3 ratio (FLT3 IC50/Mer IC50) (MERTK): +++ (a ratio of >100)
- IC50 (FLT3): 1 to 10 µM

Compound: CC(C)CNc1ncc2c(OC3CCNCC3)ncc([C@H]3CC[C@H](O)CC3)c2n1 [Compound 212]
- IC50 (MERTK): ≤ 0.1 µM
- Mer/Flt3 ratio (FLT3 IC50/Mer IC50) (MERTK): ++ (a ratio of between 10 and 100)
- IC50 (FLT3): 0.1 to 1 µM

Compound: COC[C@H](C)Nc1ncc2c(OC3CC(C)(C)N(C)C(C)(C)C3)ncc([C@H]3CC[C@H](O)CC3)c2n1 [Compound 259]
- IC50 (MERTK): ≤ 0.1 µM
- Mer/Flt3 ratio (FLT3 IC50/Mer IC50) (MERTK): +++ (a ratio of >100)
- IC50 (FLT3): 1 to 10 µM

Compound: CC(C)Nc1ncc2c(OC3CCOCC3)ncc(-c3cccc(CC#N)c3)c2n1 [Compound 274]
- IC50 (MERTK): ≤ 0.1 µM
- Mer/Flt3 ratio (FLT3 IC50/Mer IC50) (MERTK): ++ (a ratio of between 10 and 100)
- IC50 (FLT3): 1 to 10 µM

Compound: CC[C@H](C)Nc1ncc2c(=O)n(CC34CCC(O)(CC3)CC4)cc([C@H]3CC[C@H](O)CC3)c2n1 [Compound 257]
- IC50 (MERTK): ≤ 0.1 µM
- Mer/Flt3 ratio (FLT3 IC50/Mer IC50) (MERTK): +++ (a ratio of >100)
- IC50 (FLT3): 1 to 10 µM

Compound: Cc1ccc(Cl)cc1Nc1ncc2c(OC3CCNCC3)ncc([C@H]3CC[C@H](O)CC3)c2n1 [Compound 209]
- IC50 (MERTK): 0.1 to 1 µM
- Mer/Flt3 ratio (FLT3 IC50/Mer IC50) (MERTK): NS (a ratio of ≤2.0)
- IC50 (FLT3): 0.1 to 1 µM

Compound: O[C@H]1CC[C@H](c2cnc(OC3CCNCC3)c3cnc(Nc4ccccc4F)nc32)CC1 [Compound 262]
- IC50 (MERTK): ≤ 0.1 µM
- Mer/Flt3 ratio (FLT3 IC50/Mer IC50) (MERTK): ++ (a ratio of between 10 and 100)
- IC50 (FLT3): 0.1 to 1 µM

Compound: CC[C@H](C)Nc1ncc2c(=O)n(C3CCN(S(C)(=O)=O)CC3)cc([C@H]3CC[C@H](O)CC3)c2n1 [Compound 234]
- IC50 (MERTK): ≤ 0.1 µM
- Mer/Flt3 ratio (FLT3 IC50/Mer IC50) (MERTK): +++ (a ratio of >100)
- IC50 (FLT3): 1 to 10 µM

Compound: COC[C@H](C)Nc1ncc2c(O[C@H]3CC[C@H](O)CC3)ncc([C@H]3CC[C@H](O)CC3)c2n1 [Compound 260]
- IC50 (MERTK): ≤ 0.1 µM
- Mer/Flt3 ratio (FLT3 IC50/Mer IC50) (MERTK): +++ (a ratio of >100)
- IC50 (FLT3): 1 to 10 µM

Compound: CC[C@@H](C)Nc1ncc2c(OC3CCN(C)CC3)ncc([C@H]3CC[C@H](O)CC3)c2n1 [Compound 195]
- IC50 (MERTK): ≤ 0.1 µM
- Mer/Flt3 ratio (FLT3 IC50/Mer IC50) (MERTK): +++ (a ratio of >100)
- IC50 (FLT3): 1 to 10 µM

Compound: CC[C@H](C)Nc1ncc2c(=O)n(-c3ccc(N)cc3)cc([C@H]3CC[C@H](O)CC3)c2n1 [Compound 271]
- IC50 (MERTK): ≤ 0.1 µM
- Mer/Flt3 ratio (FLT3 IC50/Mer IC50) (MERTK): +++ (a ratio of >100)
- IC50 (FLT3): 1 to 10 µM

Compound: CC[C@H](C)Nc1ncc2c(NC3CCOCC3)ncc([C@H]3CC[C@H](O)CC3)c2n1 [Compound 217]
- IC50 (MERTK): ≤ 0.1 µM
- Mer/Flt3 ratio (FLT3 IC50/Mer IC50) (MERTK): +++ (a ratio of >100)
- IC50 (FLT3): 1 to 10 µM

Compound: CC[C@H](C)Nc1ncc2c(O[C@H]3CC[C@H](N(C)C)C3)ncc([C@H]3CC[C@H](O)CC3)c2n1 [Compound 267]
- IC50 (MERTK): ≤ 0.1 µM
- Mer/Flt3 ratio (FLT3 IC50/Mer IC50) (MERTK): +++ (a ratio of >100)
- IC50 (FLT3): 0.1 to 1 µM

Compound: CC[C@H](C)Nc1ncc2c(=O)n(C3CCOCC3)cc([C@H]3CC[C@H](O)CC3)c2n1 [Compound 225]
- IC50 (MERTK): ≤ 0.1 µM
- Mer/Flt3 ratio (FLT3 IC50/Mer IC50) (MERTK): ++ (a ratio of between 10 and 100)
- IC50 (FLT3): 1 to 10 µM

Compound: O[C@H]1CC[C@H](c2cnc(OC3CCNCC3)c3cnc(Nc4ccccc4)nc32)CC1 [Compound 210]
- IC50 (MERTK): ≤ 0.1 µM
- Mer/Flt3 ratio (FLT3 IC50/Mer IC50) (MERTK): + (a ratio of >2.0 and <10)
- IC50 (FLT3): ≤ 0.1 µM

Compound: Cc1cccc(Nc2ncc3c(OC4CCNCC4)ncc([C@H]4CC[C@H](O)CC4)c3n2)c1 [Compound 197]
- IC50 (MERTK): ≤ 0.1 µM
- Mer/Flt3 ratio (FLT3 IC50/Mer IC50) (MERTK): ++ (a ratio of between 10 and 100)
- IC50 (FLT3): 0.1 to 1 µM
